Assays:
Format in all cases: cell-based
B. subtilis organisms [1] = assay: Integrated biological sensor disk antibiotic susceptibility test (oxygen consumption via luminescent signal), 400,000 cells per disk
Protocol: In this example, organisms were applied to the integrated biological sensor disk in order to attain rapid measures of activity within the disk's microenvironment while the disk was incubated in culture media containing the antibiotic being assayed for effects on the microbial population.
B. subtilis organisms were cultured in Trypticase Soy Broth (TSB) media to obtain an inoculum of actively growing test organisms. Twenty microliter aliquots, each containing 400,000 cells (established by subsequent plate counting), were removed, and dispensed onto 0.25 inch diameter dry oxygen-sensor disks prepared from 0.45 micron pore cellulose-ester filter membrane stock (Millipore), in a manner similar to that described in Example 7. These integrated biological sensor disks bearing organisms were placed at the bottom of sterile polypropylene vessels, to which was added 1 ml of TSB media containing penicillin at concentrations of 5 ug/ml, or 5 ng/ml, or no antibiotic in the case of the positive growth control.
(§1) All samples were prepared and cultured in parallel, incubated at 37° C. and the oxygen consumption tracked via the integrated sensors' luminescent signals, in a manner similar to that shown in FIG. 7. […] The inhibitory effect of penicillin on organisms' growth was already manifesting itself in this time frame.

B. subtilis organisms [2] = assay: Bulk-volume suspension culture antibiotic test with oxygen-sensor disk at vessel bottom; settings: after 60 minutes, control 2%
Protocol: Alternatively, as a comparison of outgrowth and detection of antibiotic effects under bulk-volume assay conditions, identical aliquots of B. subtilis organisms were and mixed into 1 ml samples of TSB media prepared with and without penicillin as described above and dispensed into vessels. To measure oxygen consumption of the organisms in these bulk suspension samples, oxygen-sensor disks of the same derivation as the above integrated sensors, but without organisms applied to them, were placed in the bottom of the vessels.
as §1
By comparison, the bulk volume cultures of B. subtilis after 60 minutes were just beginning to show indications of growth but were too early into the assay to identify inhibitory effects. The control, without antibiotic present, was just 2% above baseline, which was the same signal level as the 5 ng/ml penicillin sample. The 5 ug/ml high dose registered 1% above baseline.

B. subtilis cells = assay: Companion study: integrated sensor-BI, 8,000 cells collected by filtration on glass-fiber oxygen-sensor disks; settings: for signal change: at about 3.5 hours (control 5% signal increase)
Protocol: A similar companion study, indicated the potential of the integrated sensor-BI to detect microbial activity and identify antibiotic sensitivity in several hours, using a small number of organisms to initiate the test. Inoculum of only 8,000 B. subtilis cells were collected by filtration, similar to Example 9, on oxygen-sensor disks made from Millipore AP-40 glass-fiber filter material (0.7 micron particle retention). In about 3.5 hours, without antibiotic present, the population expanded in the integrated biological sensor control, producing a 5% level signal increase, i.e. positive indication of outgrowth. […] After 8 hours of incubation, the low-dose penicillin exposed population eventually expanded enabling assay detection of outgrowth. No activity was identified in the sample exposed to the high dose at any point over the 20 hour assay.

penicillin
sensitivity of the organisms to the antibiotic (B. subtilis organisms [1]; conclusion from 5 ng/ml and 5 ug/ml samples): sensitive | signal increase (luminescent oxygen sensor signal above baseline) (B. subtilis organisms [1]; penicillin 5 ng/ml, after 60 minutes of assay, 37° C., TSB media, control without penicillin 12%): 6% | metabolic activity (oxygen consumption) (B. subtilis organisms [1]; penicillin 5 ug/ml, throughout 40 hours of monitoring, 37° C.): no evidence of metabolic activity | signal above baseline (B. subtilis organisms [2]; penicillin 5 ng/ml): 2% | signal above baseline (B. subtilis organisms [2]; penicillin 5 ug/ml): 1% | activity (outgrowth / oxygen consumption) (B. subtilis cells; high dose penicillin (5 ug/ml), at any point over the 20 hour assay): No activity | incubation time to assay detection of outgrowth (B. subtilis cells; low-dose penicillin (5 ng/ml), control about 3.5 hours): 8 h | signal change (B. subtilis cells; penicillin 5 ng/ml): No signal change | signal change (B. subtilis cells; penicillin 5 ug/ml): No signal change

Reference: patent US8173438B1, “Microbiological assessment method and device utilizing oxygen gradient sensing” (Photonic BioSystems, Inc., priority 1996, dated 2012)
